Measured values from PubChem BioAssay (NCI).
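Cultured in 96-well plates, cells were exposed to test compound for 48 hours across five concentrations. The concentration for 50% growth inhibition is given as GI50. TGI is the concentration that stops growth completely.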

Tests used:
Test in all cases: inhibition of tumour cell growth, NCI panel, 48 h
[1] = tested on: HL-60(TB) leukemia
[2] = tested on: HOP-92 NSCLC
[3] = tested on: SNB-19 CNS
[4] = tested on: ACHN renal
[5] = tested on: OVCAR-8 ovarian
[6] = tested on: K-562 leukemia
[7] = tested on: RPMI-8226 leukemia
[8] = tested on: M14 melanoma
[9] = tested on: U251 CNS
[10] = tested on: MOLT-4 leukemia
[11] = tested on: EKVX NSCLC
[12] = tested on: T-47D breast
[13] = tested on: HT29 colon
[14] = tested on: SF-295 CNS
[15] = tested on: DU-145 prostate
[16] = tested on: SW-620 colon
[17] = tested on: MALME-3M melanoma
[18] = tested on: NCI-H460 lung

SMILES | TGI [1] [µM] | TGI [2] [µM] | TGI [3] [µM] | TGI [4] [µM] | TGI [5] [µM] | TGI [6] [µM] | TGI [7] [µM] | TGI [8] [µM] | TGI [9] [µM] | TGI [10] [µM] | TGI [11] [µM] | TGI [12] [µM] | TGI [13] [µM] | TGI [14] [µM] | TGI [15] [µM] | TGI [16] [µM] | TGI [17] [µM] | TGI [18] [µM] | GI50 [2] [µM]
CC(C)C1CC(CO)(CNc2nc(N)nc(Cl)c2/C=N\O)C1 (stereo not given) | 29.1 | 35.2 | > 100 | 35 | 50.3 | > 100 | 31.9 | 26.1 | 39.6 | 63 | 11.7 | 4.91 | 15.5 | > 68.2 | > 100 | 61.2 | 16 | 3.14 | –
COc1ccc2nc3c(C)cc4ccccc4n3c2c1 | > 100 | > 100 | > 100 | > 100 | > 100 | > 100 | > 100 | > 100 | > 100 | > 100 | > 100 | > 100 | > 100 | > 100 | > 100 | > 100 | > 100 | > 100 | –
CC(O)CC(=O)CO[C@H]1[C@H](O)[C@@H](O)[C@@H](O)[C@@H]2NC(=O)c3c(cc4c(c3O)OCO4)[C@H]21 (stereo not given in full) | 0.2 | 0.64 | 0.0754 | 0.613 | 1.53 | 4.14 | 0.147 | 0.149 | 0.307 | 0.321 | 0.14 | 0.109 | 0.179 | 0.314 | 0.0818 | > 100 | 0.0529 | 0.188 | –
O=c1sc(Nc2ccc3ccccc3c2Cl)nc2ccccc12 | > 100 | > 100 | > 100 | > 100 | – | > 100 | > 100 | – | > 100 | – | > 100 | > 100 | > 100 | > 100 | > 100 | > 100 | > 100 | > 100 | –
COc1ccc(-c2[nH]c(-c3ccc(OC)cc3)c(-c3ccccn3)c2-c2ccccn2)cc1 | > 100 | > 100 | > 100 | > 100 | > 100 | 84.5 | 69.5 | > 100 | > 100 | > 100 | > 100 | > 100 | 49.3 | > 100 | > 100 | > 100 | > 100 | > 100 | –
Cc1occc1C(=S)Nc1ccc(Cl)c(C(=O)OCC(C)C)c1 | 79.5 | 34.1 | 31.2 | 43.2 | 30.7 | 55.2 | 75 | 65 | 35.9 | 44.8 | 31 | 34.3 | 26.3 | 33.2 | 39.8 | 45.8 | 36.2 | 44.9 | –
COc1ccc(OC)c(N=Cc2cc(OC)c(OC)c(OC)c2)c1 | > 100 | > 78 | > 100 | > 100 | > 100 | > 100 | > 76.6 | > 100 | > 100 | > 100 | > 100 | > 100 | > 100 | > 100 | > 100 | > 100 | > 100 | > 100 | –
O=[N+]([O-])c1cnc(N(CCO)CCO)s1 | > 100 | > 100 | > 100 | > 100 | > 100 | > 100 | – | > 100 | > 100 | > 100 | > 100 | > 100 | > 100 | > 100 | > 100 | > 100 | > 100 | > 100 | –
CC1(c2nc3ccccc3[nH]2)CCC(C#N)C(C)(C)O1 (stereo not given) | > 100 | > 100 | > 100 | > 100 | > 100 | > 100 | > 100 | > 100 | > 100 | > 100 | > 100 | > 100 | > 100 | > 100 | > 100 | > 100 | > 100 | – | –
Clc1ccc(OCc2nnc3sc(SSc4nn5c(COc6ccc(Cl)cc6)nnc5s4)nn23)cc1 | > 100 | > 100 | > 100 | > 100 | > 100 | > 100 | > 100 | > 100 | > 100 | – | > 100 | > 100 | > 100 | > 100 | > 100 | > 100 | > 100 | > 100 | 18.2
CC(=O)Nc1ncc2c(n1)-c1ccccc1OC2c1ccccc1 (stereo not given) | > 100 | 41.4 | 89.6 | 28.2 | 66.2 | – | > 100 | > 100 | > 100 | > 100 | > 100 | 68.4 | > 100 | > 100 | > 100 | > 100 | – | > 100 | –
CC1=NN(c2cccc(Cl)c2)C2(C1=Cc1cccs1)C(Cl)C(=O)N2c1nc2ccccc2s1 (stereo not given) | 61 | 52.7 | – | 50.6 | 48.2 | 72.4 | 43.6 | > 100 | 30.7 | 57.1 | 42.8 | > 100 | 46 | 55.9 | > 100 | > 100 | – | 45.4 | –
COc1ccc(/C=C2\C[C@H]3[C@@H]4CC=C5C[C@@H](OC(C)=O)CC[C@]5(C)[C@H]4CC[C@]3(C)C2=O)cc1OC | 78.9 | > 100 | > 100 | > 100 | > 100 | > 100 | > 100 | > 100 | – | > 100 | 66.5 | > 100 | > 100 | > 100 | > 100 | > 100 | > 100 | > 100 | –
COC(=O)CN=C1NC(=S)N(Cc2ccc(OC)cc2)C12CCCC2 | – | > 100 | > 100 | > 100 | > 100 | > 100 | > 100 | > 100 | > 100 | > 100 | > 100 | > 100 | > 100 | > 100 | > 100 | > 100 | > 100 | > 100 | –
O=c1ccn(Cc2ccccc2CCl)c(=O)[nH]1 | > 100 | > 100 | > 100 | 75.6 | 55.8 | > 100 | – | 73.9 | 85.2 | > 100 | 59.6 | > 100 | 68.6 | 64.1 | > 100 | > 100 | 40.6 | > 100 | –
Cc1ccc(S(=O)(=O)NN=C2C(C)(C)CC2(C)C)cc1 | > 100 | > 100 | > 100 | > 100 | > 100 | > 100 | – | > 100 | > 100 | > 100 | > 100 | > 100 | > 100 | > 100 | > 100 | > 100 | > 100 | > 100 | –
Cc1c2oc3c(C)cnc(C(=O)NC4C(=O)NC(C(C)C)C(=O)N5CCCC5C(=O)N(C)CC(=O)N(C)C(C(C)C)C(=O)OC4C)c3nc-2c(C(=O)NC2C(=O)NC(C(C)C)C(=O)N3CCCC3C(=O)N(C)CC(=O)N(C)C(C(C)C)C(=O)OC2C)c(N)c1=O (stereo not given) | > 26 | 36 | > 68.4 | > 64.6 | > 44.5 | 2.36 | – | 16.8 | > 38 | 0.675 | > 75 | > 53.4 | > 75 | 39.9 | > 75 | > 53.3 | 16.6 | > 24.6 | –
COc1ccc(N=C(CS(=O)c2ccc(C)cc2)C(F)(F)F)cc1 (stereo not given) | 50.9 | > 100 | > 100 | > 100 | > 100 | > 100 | – | > 100 | > 100 | > 100 | > 100 | > 100 | > 100 | > 100 | > 100 | > 100 | > 100 | > 100 | –
N#CC(NNC(=O)c1c(Cl)c(Cl)c(Cl)c(Cl)c1-c1nc2ccc(C(=O)c3ccccc3)cc2[nH]1)c1ccccc1 (stereo not given) | 45.6 | > 100 | 99.2 | > 100 | > 100 | 19.3 | 24.9 | 31.1 | > 100 | 27.7 | > 100 | 98.8 | > 100 | 22.1 | > 100 | > 100 | > 100 | – | –
COc1ccc(C[n+]2cccc(O)c2)cc1 | > 100 | > 100 | > 100 | > 100 | > 100 | > 100 | – | > 100 | > 100 | > 100 | > 100 | > 100 | > 100 | > 100 | > 100 | > 100 | > 100 | > 100 | –
COc1ccc(C(=O)N2CCN(c3ccc4c(c3)OCC(=O)N4)CC2)cc1OC | > 100 | > 100 | > 100 | > 100 | > 100 | – | > 100 | > 100 | > 100 | > 100 | > 100 | > 100 | > 100 | > 100 | > 100 | > 100 | > 100 | > 100 | –
N#CC(c1ccccc1)N(CCc1ccccc1)C(=O)c1ccc(C(=O)N(CCc2ccccc2)C(C#N)c2ccccc2)cc1 (stereo not given) | > 100 | 28.1 | > 100 | 73.5 | 34.6 | 67.4 | – | 79 | 64.6 | – | > 100 | 61.3 | 38.6 | 51.9 | > 100 | 58.7 | 39.3 | 37 | –
O=C(O)C1CC(C2CCCCN2)CN2CCCCC12 (stereo not given) | – | > 100 | > 100 | > 100 | > 100 | > 100 | > 100 | > 100 | > 100 | > 100 | > 100 | > 100 | > 100 | > 100 | > 100 | > 100 | > 100 | > 100 | –
CCN(CC)C(=S)/N=C(\SC(=S)N(CC)CC)c1ccccc1 | – | > 100 | > 100 | > 100 | > 100 | > 100 | > 96.1 | > 100 | > 100 | > 74.8 | > 100 | > 100 | > 100 | > 100 | > 87.9 | > 100 | > 100 | > 100 | –
Cc1ccc(NC(=O)CC(=O)N2N=C(N3CCCCC3)CC2c2ccccc2)cc1 (stereo not given) | > 100 | > 100 | > 100 | > 100 | > 100 | – | – | > 100 | > 100 | > 100 | > 100 | > 100 | > 100 | > 100 | > 100 | > 100 | > 100 | > 100 | –
CC(=O)c1cc2c(s1)C(=O)c1ccsc1C2=O | 0.369 | 5.04 | 1.02 | 0.626 | 1.59 | 3.57 | 49.7 | 1.2 | 0.785 | 2.17 | 3.24 | 6.82 | 4.19 | 0.307 | 0.743 | 0.37 | 0.332 | – | –
O=S(=O)(O)c1ccc(Nc2ccnc3ccccc23)cc1 | > 100 | > 100 | > 100 | > 100 | > 100 | > 100 | > 100 | > 100 | > 100 | > 100 | > 100 | > 100 | > 100 | > 100 | > 100 | > 100 | > 100 | – | –
